Percent hemolysis and autophagic activity data for 1 compound are collected here from paper PMC10000267, “ALA‐A2 Is a Novel Anticancer Peptide Inspired by Alpha‐Lactalbumin: A Discovery from a Computational Peptide Library, In Silico Anticancer Peptide Screening and In Vitro Experimental Validation” (Global Challenges, 2023).

Residues, ends and D or L forms follow the SMILES beside them.

The test system of one series is Human red blood cells. Kind of series: Ex vivo hemolysis assay (RBC lysis assay). The series is classed as cell-based. Conditions: ≈0.8% v/v human RBC suspension in 0.9% normal saline, peptide 200 µM, 1 h, room temperature, absorbance 415 nm, relative to 1% Triton X‐100; blood of three healthy individuals, mean ± SD. How it is done:
The hemolysis assay was as described previously.^[ [30] ^] After informed consent, peripheral blood (3 mL) was collected from three healthy individuals into heparin tubes (BD Biosciences, NJ, USA). The specimen was centrifuged at 2000 × g for 5 min at room temperature, and the plasma was discarded. The RBCs were washed twice with PBS and then resuspended in 0.9% normal saline solution at a volume equivalent to that of the original plasma. Approximately 0.8% v/v RBC suspension was incubated with the peptides at 200 µM (100 µL final volume) in a U‐bottom 96‐well plate at room temperature for 1 h with agitation. 1% v/v Triton X‐100 was applied as a positive control. The untreated condition served as the blank control. After 1 h incubation, the supernatants were collected by centrifuging at 2000 × g for 5 min at room temperature. The absorbance of hemoglobin in the supernatant was measured at 415 nm. The hemolysis percentage was calculated as follows: (2) % Hemolysis = [sample absorbance−blank control/positive control−blank control] × 100

A further series concerns A549 cells. Kind of series: Autophagy activity assay. Conditions: A549, 200 µM, 24 h; autophagosome/autophagolysosome signal normalised to nuclear signal; three biological replicates. The series is classed as cell-based, human. How it is done: A549 cells (1 × 10^4 cells/well in a 96‐well plate) were treated with 200 µM ALA‐A2. Treated cells were maintained for 24 h before determining autophagy activity using an autophagy assay kit (ab139484, Abcam, Milpitas, CA). To prepare for the staining, the media was removed, and the cells were washed once with 1× assay buffer. The dual color detection solution was added to the wells and incubated for 30 min. The cells were washed and 1× assay buffer added to each well. The nuclear signal was excitation of 340 nm and […], whereas autophagosomes and autophagolysosomes were detected by excitation of 480 nm and emission of 530 nm. Autophagy activity was calculated by normalizing the autophagosome/autophagolysosome signal to the nuclear signal. Rapamycin (2 µM), a known autophagy inducer, was the positive control.^[ [33] ^] This experiment was performed in three biological replicates.

As for `CC(C)C[C@H](NC(=O)[C@@H](N)CCCCN)C(=O)N[C@@H](Cc1c[nH]c2ccccc12)C(=O)N[C@@H](CS)C(=O)N[C@@H](CCCCN)C(=O)N[C@@H](CO)C(=O)N[C@@H](CO)C(=O)N[C@@H](CCC(N)=O)C(=O)N[C@H](C(=O)N1CCC[C@H]1C(=O)N[C@@H](CCC(N)=O)C(=O)N[C@@H](CO)C(=O)N[C@@H](CCCNC(=N)N)C(=O)O)C(C)C` [ALA‐A2] (H-KLWCKSSQVPQSR-OH), the percent hemolysis with Human red blood cells is given as 7.8% ± 10.2%. Further, the autophagic activity with A549 cells was 1.5 fold of untreated cells.
